Assay results taken from patent US8618138B2, “Indole amide derivatives and related compounds for use in the treatment of neurodegenerative diseases” (Katholieke Universiteit Leuven, K.U. Leuven R&D, priority 2009, dated 2013).
pEC50: −log10 of the molar value.

System: M17-TAU P301L cells
Test: TAU cytotoxicity assay: LDH leakage of retinoic acid incubated M17-TAU P301L cells
Type: cell-based, human
Details: Homo sapiens, 168 h, reduction of LDH activity of retinoic acid incubated M17-TAU P301L cells, 7 days
Excerpt: A TAU expression plasmid was constructed by sub-cloning the cDNA of human TAU-P301 L (encoding for TAU with proline 301 substituted by a leucine residue) into mammalian expression vector pcDNA3.1 resulting in plasmid pcDNA3.1-TAU P301L. Plasmids pcDNA3.1 and pcDNA3.1-TAU P301L were transfected to human neuroblastoma cells ([…]; ATCC No. CRL-2267) and independent clonal lines with the plasmids stably integrated into the genome were selected. […] Expression of the TAU P301L genes in the cell lines was confirmed by Western analysis.
In degenerated or dead cells lactate dehydrogenase (LDH) is leaked out of the cells into the extracellular environment due to a loss of plasma-membrane integrity. This principle was used to determine cytotoxicity by quantifying the level of leaked LDH into the growth medium.
The detailed method for determining TAU cytotoxicity was as follows: From appropriate precultures of M17-3.1 and M17-TAU(P301L) cells were seeded at 2500 cells/cm2 in Optimem Reduced Serum without phenol red (Gibco, Cat. 31985-047) supplemented with 1% fetal calf serum, 1 mM sodium pyruvate, 1× non-essential amino acids, 500 μg/ml G418 0.5× antibiotic/antimycotic. After 3 h of incubation at 37° C./5% CO2 1 volume of Optimem Reduced Serum (same as described above; except without fetal calf serum) supplemented with 2.5 μM retinoic acid (RA) was added. The cells were further incubated for 7 days. Subsequently, LDH activity was determined using Promega Cytotox 96 Non-Radioactive cytotoxicity assay, (Cat. G1780) according the supplier's instructions.
The M17-TAU P301L cell line made it possible to assess the ability of novel compounds to counteract TAU cytotoxicity. […] These measurements were used to calculate EC50 values of table 2.
Exemplary compounds of the present invention are shown in table 2, with their chemical name and their EC50 value (expressed in nM) as determined from example 196 in the Tau-induced toxicity experiment.

Compound	pEC50
O=C(NCCc1c[nH]c2ccc(Cl)cc12)c1cc(-c2cccc3c2OCCO3)on1 [Example D38, N-(2-(5-chloro-1H-indol-3-yl)ethyl)-5-(2,3-dihydrobenzo[b][1,4]dioxin-5-yl)isoxazole-3-carboxamide]	7.10
Cc1nc(NCCc2ccccc2)sc1C(=O)NCCc1c[nH]c2ccccc12 [Example D39, N-(2-(1H-indol-3-yl)ethyl)-4-methyl-2-(phenethylamino)thiazole-5-carboxamide]	7.06
CCc1ccc(N2CCC(C(=O)NCCc3c[nH]c4ccc(Cl)cc34)C2=O)cc1 (centres unmarked) [Example D40, N-(2-(5-chloro-1H-indol-3-yl)ethyl)-1-(4-ethylphenyl)-2-oxopyrrolidine-3-carboxamide]	7.04
O=C(NCCc1c[nH]c2ccc(Cl)cc12)c1cc(Cc2ccncc2)on1 [Example D41, N-(2-(5-chloro-1H-indol-3-yl)ethyl)-5-(pyridin-4-ylmethyl)isoxazole-3-carboxamide]	7.04
O=C(NCCc1c[nH]c2ccc(Cl)cc12)c1cc(Cn2cccn2)on1 [Example D42, 5-((1H-pyrazol-1-yl)methyl)-N-(2-(5-chloro-1H-indol-3-yl)ethyl)isoxazole-3-carboxamide]	7.04
O=C(NCCc1c[nH]c2ccc(Cl)cc12)C1=NOC(Cc2ccccc2)C1 (centres unmarked) [Example D43, 5-benzyl-N-(2-(5-chloro-1H-indol-3-yl)ethyl)-4,5-dihydroisoxazole-3-carboxamide]	7.03
O=C(NCCc1c[nH]c2ccc(Cl)cc12)c1cn(C2CCCCC2)nn1 [Example D44, N-(2-(5-chloro-1H-indol-3-yl)ethyl)-1-cyclohexyl-1H-1,2,3-triazole-4-carboxamide]	6.97
Cc1ccc(-c2nc(C)c(C(=O)NCCc3c[nH]c4ccc(Cl)cc34)s2)cc1 [Example D45, N-(2-(5-chloro-1H-indol-3-yl)ethyl)-4-methyl-2-p-tolylthiazole-5-carboxamide]	6.95
Cc1nc(-c2ccccc2)sc1C(=O)NCCc1c[nH]c2ccc(Cl)cc12 [Example D46, N-(2-(5-chloro-1H-indol-3-yl)ethyl)-4-methyl-2-phenylthiazole-5-carboxamide]	6.91
O=C(NCCc1c[nH]c2cc(F)ccc12)c1cc(Cc2cccc(F)c2)on1 [Example D47, N-(2-(6-fluoro-1H-indol-3-yl)ethyl)-5-(3-fluorobenzyl)isoxazole-3-carboxamide]	6.88
CCc1ccc(N2CCC(C(=O)NCCc3c[nH]c4ccc(C)cc34)C2=O)cc1 (centres unmarked) [Example D48, 1-(4-ethylphenyl)-N-(2-(5-methyl-1H-indol-3-yl)ethyl)-2-oxopyrrolidine-3-carboxamide]	6.86
COc1ccc(-c2cc(C(=O)NCCc3c[nH]c4ccc(Cl)cc34)no2)cc1 [Example D49, N-(2-(5-chloro-1H-indol-3-yl)ethyl)-5-(4-methoxyphenyl)isoxazole-3-carboxamide]	6.85
O=C(NCCc1c[nH]c2ccc(Cl)cc12)C1CC(c2ccccc2)=NO1 (centres unmarked) [Example D50, N-(2-(5-chloro-1H-indol-3-yl)ethyl)-3-phenyl-4,5-dihydroisoxazole-5-carboxamide]	6.82
Cn1cc(CCNC(=O)c2cc(Cc3cccc(F)c3)on2)c2cc(Cl)ccc21 [Example D51, N-(2-(5-chloro-1-methyl-1H-indol-3-yl)ethyl)-5-(3-fluorobenzyl)isoxazole-3-carboxamide]	6.80
O=C(NCCc1c[nH]c2ccc(Cl)cc12)c1nnc(-c2ccccc2)o1 [Example D52, N-(2-(5-chloro-1H-indol-3-yl)ethyl)-5-phenyl-1,3,4-oxadiazole-2-carboxamide]	6.80
O=C(NCCc1c[nH]c2ccc(Cl)cc12)c1ncc(-c2ccccc2)o1 [Example D53, N-(2-(5-chloro-1H-indol-3-yl)ethyl)-5-phenyloxazole-2-carboxamide]	6.77
O=C(NCCc1c[nH]c2ccc(Cl)cc12)c1cn(Cc2ccccc2)nn1 [Example D54, 1-benzyl-N-(2-(5-chloro-1H-indol-3-yl)ethyl)-1H-1,2,3-triazole-4-carboxamide]	6.76
